Patent publication US5081232A, “Complexes of TC99m radiopharmaceuticals” (priority 1987, dated 1992)
Like-named read-outs stand apart in the source and are kept apart here.

Assays:
[1] = Animal biodistribution (in vivo, i.v. injection); conditions: rats; for Blood, % injected dose/organ: blood taken as 5.8% of body weight; for Muscle, % injected dose/organ: muscle taken as 43% of body weight
Experimental: (§1) 0.1 ml Tc^99m prep was injected i.v. into a lateral tail vein of 6 anaesthetised rats.
(§2) At 2 minutes and 60 minutes post injection, 3 rats were sacrificed by decapitation, bled from the neck and dissected. The following organs were removed at dissection: kidney, bladder(+urine), lung, liver, spleen, stomach, small intestine, large intestine, brain (weighed), heart (weighed), thyroid, and samples of blood (weighed) and muscle (weighed, the residual carcass and the tail (injection site). Subsequently samples were counted in an automatic twin crystal gamma counter.
(§3) Percentage biodistribution of injected material was calculated (after correction for background) for all organs using the formula: [formula]
(§4) Since only samples of muscle and blood were taken, the percentage in these tissues was calculated assuming blood and muscle to represent 5.8 and 43% of total animal weight respectively using the formula: [formula] where CF= 0.058 for blood

[2] = rat, in vivo, iv
Experimental: as §1, §2, §3, §4

SMILES: O=[N][Tc+][Cl].[C-]#[N+]C(C)(C)C.[C-]#[N+]C(C)(C)C.[C-]#[N+]C(C)(C)C.[C-]#[N+]C(C)(C)C [[^99 Tc(NO)Cl(t-BuCN)4]^+]
- Brain, % injected dose/organ ([1]; 2 min p.i.): 0.04 % injected dose/organ
- Heart, % injected dose/organ ([1]; 2 min p.i.): 1.09 % injected dose/organ
- Heart/Blood Counts/Gram ratio ([1]; 2 min p.i.): 6.19
- Heart/Liver Counts/Gram ratio ([1]; 2 min p.i.): 2.58
- Heart/Lung Counts/Gram ratio ([1]; 2 min p.i.): 3.34
- Kidney + Urine, % injected dose/organ ([1]; 2 min p.i.): 6.86 % injected dose/organ
- Liver, % injected dose/organ ([1]; 2 min p.i.): 5.82 % injected dose/organ
- Lung, % injected dose/organ ([1]; 2 min p.i.): 0.64 % injected dose/organ
- Blood, % injected dose/organ ([1]; 2 min p.i.): 0.40 % injected dose/organ
- Muscle, % injected dose/organ ([1]; 2 min p.i.): 21.45 % injected dose/organ
- Brain, % injected dose/organ ([1]; 60 min p.i.): 0.04 % injected dose/organ
- Heart, % injected dose/organ ([1]; 60 min p.i.): 1.37 % injected dose/organ
- Heart/Blood Counts/Gram ratio ([1]; 60 min p.i.): 8.98
- Heart/Liver Counts/Gram ratio ([1]; 60 min p.i.): 2.97
- Heart/Lung Counts/Gram ratio ([1]; 60 min p.i.): 26.02
- Kidney + Urine, % injected dose/organ ([1]; 60 min p.i.): 8.15 % injected dose/organ
- Liver, % injected dose/organ ([1]; 60 min p.i.): 5.89 % injected dose/organ
- Lung, % injected dose/organ ([1]; 60 min p.i.): 0.12 % injected dose/organ
- Muscle, % injected dose/organ ([1]; 60 min p.i.): 18.30 % injected dose/organ

SMILES: O=[N][99Tc-]([Cl])([Cl])([Cl])[Cl] [[^99m TcNOCl4]^-]
- Brain, % injected dose/organ ([1]; 2 min p.i.): 0.09 % injected dose/organ
- Heart, % injected dose/organ ([1]; 2 min p.i.): 0.55 % injected dose/organ
- Heart/Blood Counts/Gram ratio ([1]; 2 min p.i.): 0.41
- Heart/Liver Counts/Gram ratio ([1]; 2 min p.i.): 1.37
- Heart/Muscle Counts/Gram ratio ([1]; 2 min p.i.): 2.14
- Kidney + Urine, % injected dose/organ ([1]; 2 min p.i.): 6.26 % injected dose/organ
- Liver + GI, % injected dose/organ ([1]; 2 min p.i.): 13.49 % injected dose/organ
- Liver, % injected dose/organ ([1]; 2 min p.i.): 5.31 % injected dose/organ
- Lung, % injected dose/organ ([1]; 2 min p.i.): 2.09 % injected dose/organ
- Blood, % injected dose/organ ([1]; 2 min p.i.): 20.32 % injected dose/organ
- Muscle, % injected dose/organ ([1]; 2 min p.i.): 30.35 % injected dose/organ
- Brain, % injected dose/organ ([1]; 60 min p.i.): 0.05 % injected dose/organ
- Heart, % injected dose/organ ([1]; 60 min p.i.): 0.42 % injected dose/organ
- Heart/Blood Counts/Gram ratio ([1]; 60 min p.i.): 0.43
- Heart/Liver Counts/Gram ratio ([1]; 60 min p.i.): 0.98
- Heart/Muscle Counts/Gram ratio ([1]; 60 min p.i.): 1.66
- Kidney + Urine, % injected dose/organ ([1]; 60 min p.i.): 14.61 % injected dose/organ
- Liver + GI, % injected dose/organ ([1]; 60 min p.i.): 11.89 % injected dose/organ
- Liver, % injected dose/organ ([1]; 60 min p.i.): 4.59 % injected dose/organ
- Lung, % injected dose/organ ([1]; 60 min p.i.): 1.71 % injected dose/organ
- Blood, % injected dose/organ ([1]; 60 min p.i.): 14.94 % injected dose/organ
- Muscle, % injected dose/organ ([1]; 60 min p.i.): 30.41 % injected dose/organ

SMILES: CP(C)CCP(C)C.CP(C)CCP(C)C.N#[O+].[99Tc+].[Cl-].[Cl-]
- Brain, % injected dose/organ ([1]; 2 min p.i.): 0.04 % injected dose/organ
- Heart, % injected dose/organ ([1]; 2 min p.i.): 0.46 % injected dose/organ
- Heart/Blood Counts/Gram ratio ([1]; 2 min p.i.): 0.68
- Heart/Liver Counts/Gram ratio ([1]; 2 min p.i.): 0.38
- Heart/Lung Counts/Gram ratio ([1]; 2 min p.i.): 0.71
- Heart/Muscle Counts/Gram ratio ([1]; 2 min p.i.): 1.85
- Kidney + Urine, % injected dose/organ ([1]; 2 min p.i.): 10.18 % injected dose/organ
- Liver + GI, % injected dose/organ ([1]; 2 min p.i.): 26.33 % injected dose/organ
- Liver, % injected dose/organ ([1]; 2 min p.i.): 15.03 % injected dose/organ
- Lung, % injected dose/organ ([1]; 2 min p.i.): 1.09 % injected dose/organ
- Blood, % injected dose/organ ([1]; 2 min p.i.): 9.96 % injected dose/organ
- Muscle, % injected dose/organ ([1]; 2 min p.i.): 27.00 % injected dose/organ
- Brain, % injected dose/organ ([1]; 60 min p.i.): 0.01 % injected dose/organ
- Heart, % injected dose/organ ([1]; 60 min p.i.): 0.30 % injected dose/organ
- Heart/Blood Counts/Gram ratio ([1]; 60 min p.i.): 4.48
- Heart/Liver Counts/Gram ratio ([1]; 60 min p.i.): 1.13
- Heart/Lung Counts/Gram ratio ([1]; 60 min p.i.): 1.53
- Heart/Muscle Counts/Gram ratio ([1]; 60 min p.i.): 2.34
- Kidney + Urine, % injected dose/organ ([1]; 60 min p.i.): 42.60 % injected dose/organ
- Liver + GI, % injected dose/organ ([1]; 60 min p.i.): 34.70 % injected dose/organ
- Liver, % injected dose/organ ([1]; 60 min p.i.): 3.14 % injected dose/organ
- Lung, % injected dose/organ ([1]; 60 min p.i.): 0.33 % injected dose/organ
- Blood, % injected dose/organ ([1]; 60 min p.i.): 1.02 % injected dose/organ
- Muscle, % injected dose/organ ([1]; 60 min p.i.): 14.10 % injected dose/organ

SMILES: O=[N][99Tc]1([Cl])([Cl])([Cl])[N]2C=CC=c3ccc4c(c32)[N]1C=CC=4 [[^99 Tc(NO)(1,10 phen)Cl3]°]
- Brain, % injected dose/organ ([1]; 2 min p.i.): 0.08 % injected dose/organ
- Heart, % injected dose/organ ([1]; 2 min p.i.): 0.40 % injected dose/organ
- Heart/Blood Counts/Gram ratio ([1]; 2 min p.i.): 1.59
- Heart/Liver Counts/Gram ratio ([1]; 2 min p.i.): 35.14
- Heart/Lung Counts/Gram ratio ([1]; 2 min p.i.): 1.55
- Heart/Muscle Counts/Gram ratio ([1]; 2 min p.i.): 1.99
- Kidney + Urine, % injected dose/organ ([1]; 2 min p.i.): 1.97 % injected dose/organ
- Liver, % injected dose/organ ([1]; 2 min p.i.): 0.16 % injected dose/organ
- Lung, % injected dose/organ ([1]; 2 min p.i.): 0.67 % injected dose/organ
- Blood, % injected dose/organ ([1]; 2 min p.i.): 3.98 % injected dose/organ
- Muscle, % injected dose/organ ([1]; 2 min p.i.): 22.83 % injected dose/organ
- Brain, % injected dose/organ ([1]; 60 min p.i.): 0.04 % injected dose/organ
- Heart, % injected dose/organ ([1]; 60 min p.i.): 0.29 % injected dose/organ
- Heart/Blood Counts/Gram ratio ([1]; 60 min p.i.): 1.36
- Heart/Liver Counts/Gram ratio ([1]; 60 min p.i.): 10.63
- Heart/Lung Counts/Gram ratio ([1]; 60 min p.i.): 2.57
- Heart/Muscle Counts/Gram ratio ([1]; 60 min p.i.): 4.68
- Kidney + Urine, % injected dose/organ ([1]; 60 min p.i.): 16.05 % injected dose/organ
- Liver, % injected dose/organ ([1]; 60 min p.i.): 0.46 % injected dose/organ
- Lung, % injected dose/organ ([1]; 60 min p.i.): 0.23 % injected dose/organ
- Blood, % injected dose/organ ([1]; 60 min p.i.): 3.49 % injected dose/organ
- Muscle, % injected dose/organ ([1]; 60 min p.i.): 17.02 % injected dose/organ

SMILES: O=[N][99Tc]([Cl])([Cl])[Cl].c1ccc(-c2ccccn2)nc1 [[^99 Tc(NO)Cl3 (Bipy)], bipyridyltrichloronitrosyltechnetium (11)]
- Brain, % injected dose/organ ([1]; 2 min p.i.): 0.06 % injected dose/organ
- Heart, % injected dose/organ ([1]; 2 min p.i.): 0.32 % injected dose/organ
- Heart/Blood Counts/Gram ratio ([1]; 2 min p.i.): 0.99
- Heart/Liver Counts/Gram ratio ([1]; 2 min p.i.): 1.31
- Heart/Lung Counts/Gram ratio ([1]; 2 min p.i.): 1.30
- Heart/Muscle Counts/Gram ratio ([1]; 2 min p.i.): 1.69
- Kidney + Urine, % injected dose/organ ([1]; 2 min p.i.): 11.30 % injected dose/organ
- Liver + GI, % injected dose/organ ([1]; 2 min p.i.): 0.00 % injected dose/organ
- Liver, % injected dose/organ ([1]; 2 min p.i.): 3.43 % injected dose/organ
- Lung, % injected dose/organ ([1]; 2 min p.i.): 0.45 % injected dose/organ
- Blood, % injected dose/organ ([1]; 2 min p.i.): 7.17 % injected dose/organ
- Muscle, % injected dose/organ ([1]; 2 min p.i.): 24.17 % injected dose/organ
- Brain, % injected dose/organ ([1]; 60 min p.i.): 0.04 % injected dose/organ
- Heart, % injected dose/organ ([1]; 60 min p.i.): 0.30 % injected dose/organ
- Heart/Blood Counts/Gram ratio ([1]; 60 min p.i.): 2.12
- Heart/Liver Counts/Gram ratio ([1]; 60 min p.i.): 1.09
- Heart/Lung Counts/Gram ratio ([1]; 60 min p.i.): 4.13
- Heart/Muscle Counts/Gram ratio ([1]; 60 min p.i.): 2.02
- Kidney + Urine, % injected dose/organ ([1]; 60 min p.i.): 22.96 % injected dose/organ
- Liver + GI, % injected dose/organ ([1]; 60 min p.i.): 0.00 % injected dose/organ
- Liver, % injected dose/organ ([1]; 60 min p.i.): 3.35 % injected dose/organ
- Lung, % injected dose/organ ([1]; 60 min p.i.): 0.10 % injected dose/organ
- Blood, % injected dose/organ ([1]; 60 min p.i.): 2.02 % injected dose/organ
- Muscle, % injected dose/organ ([1]; 60 min p.i.): 18.95 % injected dose/organ

SMILES: CCCP(C)CCP(C)CCC.CCCP(C)CC[P](C)(CCC)[99Tc+]([Cl])[N]=O (centres unmarked) [[^99m Tc(NO) × (PMPE)2]^+]
- Blood, % injected dose/organ ([2]; 2 min): 3.27 % injected dose/organ
- Heart, % injected dose/organ ([2]; 2 min): 0.92 % injected dose/organ
- Heart/Blood Counts/Gram ratio ([2]; 2 min): 4.15
- Heart/Liver Counts/Gram ratio ([2]; 2 min): 0.44
- Heart/Muscle Counts/Gram ratio ([2]; 2 min): 4.78
- Kidney + Urine, % injected dose/organ ([2]; 2 min): 13.3 % injected dose/organ
- Liver + GI, % injected dose/organ ([2]; 2 min): 44.7 % injected dose/organ
- Liver, % injected dose/organ ([2]; 2 min): 27.4 % injected dose/organ
- Lung, % injected dose/organ ([2]; 2 min): 1.40 % injected dose/organ
- Muscle, % injected dose/organ ([2]; 2 min): 21.1 % injected dose/organ
- Blood, % injected dose/organ ([2]; 60 min): 0.42 % injected dose/organ
- Heart, % injected dose/organ ([2]; 60 min): 0.77 % injected dose/organ
- Heart/Blood Counts/Gram ratio ([2]; 60 min): 27.8
- Heart/Liver Counts/Gram ratio ([2]; 60 min): 1.65
- Heart/Lung Counts/Gram ratio ([2]; 60 min): 2.3
- Heart/Muscle Counts/Gram ratio ([2]; 60 min): 5.01
- Kidney + Urine, % injected dose/organ ([2]; 60 min): 15.2 % injected dose/organ
- Liver + GI, % injected dose/organ ([2]; 60 min): 53.6 % injected dose/organ
- Liver, % injected dose/organ ([2]; 60 min): 6.23 % injected dose/organ
- Lung, % injected dose/organ ([2]; 60 min): 0.53 % injected dose/organ
- Muscle, % injected dose/organ ([2]; 60 min): 17.5 % injected dose/organ
- Heart/Lung Counts/Gram ratio ([1]; 2 min p.i.): 1.0

SMILES: CCP(CC)CCP(CC)CC.CCP(CC)CCP(CC)CC.O=[N][99Tc+][Cl].[Cl-] [[^99m Tc(NO(DEPE)2 Cl]^+]
- Blood, % injected dose/organ ([2]; 2 min): 6.00 % injected dose/organ
- Heart, % injected dose/organ ([2]; 2 min): 1.06 % injected dose/organ
- Heart/Blood Counts/Gram ratio ([2]; 2 min): 3.03
- Heart/Liver Counts/Gram ratio ([2]; 2 min): 0.73
- Heart/Lung Counts/Gram ratio ([2]; 2 min): 0.4
- Heart/Muscle Counts/Gram ratio ([2]; 2 min): 5.94
- Kidney + Urine, % injected dose/organ ([2]; 2 min): 13.8 % injected dose/organ
- Liver + GI, % injected dose/organ ([2]; 2 min): 37.3 % injected dose/organ
- Liver, % injected dose/organ ([2]; 2 min): 23.63 % injected dose/organ
- Lung, % injected dose/organ ([2]; 2 min): 2.98 % injected dose/organ
- Muscle, % injected dose/organ ([2]; 2 min): 22.9 % injected dose/organ
- Blood, % injected dose/organ ([2]; 60 min): 0.41 % injected dose/organ
- Heart, % injected dose/organ ([2]; 60 min): 0.92 % injected dose/organ
- Heart/Blood Counts/Gram ratio ([2]; 60 min): 38.1
- Heart/Liver Counts/Gram ratio ([2]; 60 min): 1.75
- Heart/Lung Counts/Gram ratio ([2]; 60 min): 0.6
- Heart/Muscle Counts/Gram ratio ([2]; 60 min): 6.18
- Kidney + Urine, % injected dose/organ ([2]; 60 min): 19.3 % injected dose/organ
- Liver + GI, % injected dose/organ ([2]; 60 min): 47.0 % injected dose/organ
- Liver, % injected dose/organ ([2]; 60 min): 7.54 % injected dose/organ
- Lung, % injected dose/organ ([2]; 60 min): 1.57 % injected dose/organ
- Muscle, % injected dose/organ ([2]; 60 min): 19.1 % injected dose/organ
